Results on one molecule are retold here after PMC5066224, “A Novel Resveratrol Based Tubulin Inhibitor Induces Mitotic Arrest and Activates Apoptosis in Cancer Cells” (Scientific Reports, 2016).

The test system of one series is CEM cells. The series is described as follows: Intracellular ROS production (H2DCFDA, flow cytometry). The format is cell-based, Human. Conditions: 5 to 60 min. Here is the method: Intracellular ROS generation in cells was assessed using the oxidation-sensitive fluorescent probe 2,7-dichlorodihydro fluorescein diacetate (H2DCFDA) as previously described. CEM cells were treated with SS28 (5 μM) for 5, 10, 15, 30 and 60 min, harvested, washed and incubated with H2DCFDA (30 min at 37 °C) and then fluorescence intensity was analyzed by flow cytometry. H2O2 was used as the positive control.

The next series concerns HeLa cells. In words: Trypan blue dye exclusion cell viability assay. The format is cell-based. The conditions noted are these: Homo sapiens, 48 h. Here is the method:
(§1) The effect of SS28 on viability of CEM, Reh, Nalm6, SUDHL8, Molt4, A549, HeLa 293T, mouse embryonic fibroblast (MEF) and PBMC was determined by trypan blue dye exclusion assay as described previously. Briefly, cells (0.75 × 10^5 cells/ml) were treated with increasing concentrations of SS28 (1, 5, 10 and 20, μM) for 48 and 72 h. DMSO treated cells were used as the vehicle control. Cells were harvested and subjected to trypan blue assay. Data from a minimum of three independent experiments is presented as a histogram with error bars.

Series [1] concerns mouse embryonic fibroblast cells (MEF). The series is described as follows: Trypan blue dye exclusion cell viability assay. In kind it is cell-based. Conditions: 48 h. As to the method:
as §1

Series [2] relates to peripheral blood mononuclear cells (PBMC). The series is described as follows: Trypan blue dye exclusion cell viability assay. The conditions noted are these: 48 h. The format is cell-based. As to the method:
as §1

The subject of a further series is Reh. In words: Trypan blue dye exclusion cell viability assay. In kind it is cell-based. The conditions noted are these: Homo sapiens, 48 h. As to the method: as §1
The test system of a further series is A549. In words: Trypan blue dye exclusion cell viability assay. The format is cell-based. Conditions: Homo sapiens, 48 h. As to the method:
as §1

In the next series the test system is Nalm6. In words: Trypan blue dye exclusion cell viability assay. The conditions noted are these: Homo sapiens, NALM-6, 48 h. In kind it is cell-based. As to the method:
as §1

The subject of another series is Molt4. The series is described as follows: Trypan blue dye exclusion cell viability assay. In kind it is cell-based. The conditions noted are these: Homo sapiens, MOLT-4, 48 h. As to the method:
as §1

For another series, the system named is CEM. The series is described as follows: Trypan blue dye exclusion cell viability assay. The format is cell-based. Conditions: Homo sapiens, CCRF-CEM, 48 h. Here is the method:
as §1

Another series relates to SUDHL8. The series is described as follows: Trypan blue dye exclusion cell viability assay. The format is cell-based. Conditions: Homo sapiens, SU-DHL-8, 48 h. As to the method: as §1
The subject of the next series is A549 cells. The series is described as follows: Cell cycle phase distribution by flow cytometry. The format is cell-based, human. The conditions noted are these: A549, 5 μM, 6 to 24 h. As to the method:
Cell cycle analysis by flow cytometry was performed as previously described. Briefly, 75,000 cells/ml (A549) were seeded in 6 well plates and grown in serum free medium for 18 h. After synchronisation, the cells were treated with 5 μM of SS28 (6, 12, 18, 24 and 30 h) and cells were processed as described before. Similarly, CEM cells (75,000 cells/ml) were treated with SS28 (2 μM) and harvested (6, 12, 18, 24 and 30 h) and processed. Following fixation, cells were resuspended in PBS and stained with propidium iodide and evaluated in a flow cytometer (FACS Calibur, Becton Dickinson) using Cell Quest Pro software using excitation 488 nm laser and emission at 560/570 nm. A minimum of 10,000 cells were acquired per sample and histograms were analysed using WinMDI 2.8 software.

Series [3] in a line: In vivo pharmacokinetics, HPLC of plasma. Conditions: mice, intraperitoneal, 15 mg/kg. The arrangement: species or system BALB/c mice. As to the method: Control and SS28 (15 mg/kg b.wt.) treated BALB/c mice were sacrificed and blood was collected at various time points (15, 30 min, 1 and 2 h; 2 each/time point) as described. Plasma (50 μl) was then extracted with acetonitrile, centrifuged (3,000 × g for 15 min) to remove precipitated proteins and the resulting supernatants were analyzed using HPLC (Waters, USA).
Standard solution of SS28 was prepared by dissolving increasing concentration (25 to 100 μM) of the compound in acetonitrile. Standard calibration curves were plotted using peak area against the concentration of the compound and the retention time of the compound was also determined. Plasma concentrations of the treated groups were extrapolated from standard curves constructed by linear regression in Graph-Pad Prism 4.0 software (GraphPad Software, Inc.).

Series [4] has as its system Tubulin polymerisation in CEM cells. The series is described as follows: Cell based microtubule assembly (Tubulin polymerisation) assay. The conditions noted are these: CEM, 2, 5 and 10 μM, 24 h, pellet fraction α-Tubulin immunoblot. The arrangement: species or system Human. Here is the method: Separation of insoluble polymerized Tubulin from soluble Tubulin dimers was performed as described. In brief, CEM cells (1 × 10^6) were treated with 2, 5 and 10 μM of SS28 for 24 h. Cells were harvested and washed with PBS before adding polymerization lysate buffer containing 20 mM Tris-HCl (pH 6.8), 1 mM MgCl2, 2 mM EGTA, […], 1 mM phenylmethylsulfonyl fluoride, 1 mM orthovanadate and 0.5% NP-40. After centrifugation of the lysates at 15,000 × g for 10 min at 4 °C, the pellets were resuspended in SDS-PAGE loading buffer and dissolved by heating at 95 °C for 10 min. α-Tubulin was then immunoblotted for the pellet fraction containing polymerized microtubules and supernatants containing depolymerised microtubules were equalised and resolved on 8% SDS PAGE.
(In general: Immunoblotting shows a protein as a band on a membrane.)

Another series has as its system purified Tubulin. The series is described as follows: Circular dichroism of Tubulin with SS28. The format is binding. The conditions noted are these: Tubulin 1 μM in PEM buffer, 200-260 nm, 4 °C. As to the method:
Purified Tubulin (1 μM) was resuspended in PEM buffer (80 mM PIPES (pH 6.9), 2 mM MgCl2, 0.5 mM EGTA, 1.0 mM GTP and 5% glycerol) and CD spectrum was recorded at a wavelength of 200 to 260 nm (4 °C) on a JASCO J-810 spectropolarimeter. 3 cycles were acquired for each sample at a scan speed of 100 nm/sec. Increasing concentration of SS28 (500 pM, 1, 10, 100 and 1000 nM) was incubated with Tubulin (1 μM) in PEM buffer and the spectrum was recorded. Spectral measurements were taken for buffer alone and buffer containing DMSO were subtracted from experimental data. The molar ellipticity was calculated using Spectra Manager software and plotted as a function of wavelength.

For the molecule `COc1cc(/C=C/c2ccc(C)cc2)cc(OC)c1OC` [SS28, (E)-1,2,3-trimethoxy-5-(4-methylstyryl)benzene], in the series on CEM cells, the “intracellular ROS production” value is recorded as “did not show generation of ROS”. The IC50 (in general, the concentration at which inhibition is half-maximal) is 32.4 µM in the series on HeLa cells; 5 µM in series [1]; greater than 35 µM in [2]; 7.9 µM in the series on Reh; 5.2 µM with A549; 21 µM with Nalm6. Moreover, the figures for the IC50 in the series on Molt4, in the series with CEM and in the series with SUDHL8 were 5.1 µM, 2600 nM and 2700 nM, respectively. The cell cycle distribution result in the series with A549 cells is listed as “significant accumulation of cells at G2/M phase”. Moreover, the “level of SS28 in the plasma” value in series [3] (15 min and 1 h post-treatment) is recorded as “detectable”; in series [3] (30 min after the injection) it was “significant increase”; in series [3] (after 1 h of treatment), “significant decrease”. For the same molecule, in series [4], the “concentration from which Tubulin polymerisation was inhibited” value is no less than 2 µM. For the same molecule, the “concentration from which a shift in the CD spectrum of Tubulin was seen” value in the series on purified Tubulin is on record as no less than 500 pM.
